The subject of assay [1] is reversibly immortalized mouse beta (R7T1) cells. The assay can be described thus: R7T1 proliferation assay (CellTiter Glo). It is filed as cell-based. The following applies: growth-arrested R7T1 cells. As to the method:
Reversibly immortalized mouse β-cells (R7T1)[49] express SV40 T antigen under a tetracycline inducible promoter. R7T1 cells were expanded in the presence of doxycycline. For experiments on proliferation, R7T1 cells were growth arrested by removal of doxycycline for 2 days and plated into 384-well plates at a density of 3,000 cells per well in growth medium. β-Cell proliferation was assessed using CellTiter Glo (Promega) after 4 days. Fold increase in cell number was calculated by normalizing compound-treated wells to the median of DMSO-treated wells.
In general terms: Cellular ATP, detected with luciferase, serves as a proxy for viable cell number.

The next assay deals with human islets. The assay can be described thus: Human islets treated 7 days: DNA, ATP, IEQ, insulin content, GSIS. It is filed as cell-based. Conditions: for DNA and ATP content and islet equivalent units (IEQ) compared with vehicle / insulin secretory capacity (GSIS): 6.7 μM GNF7156 or 2 μM GNF4877. How it is done:
Human islets were evaluated for glucose stimulated insulin secretion using standard methods. Secreted insulin was monitored using an ELISA (Meso-scale Devices) and normalized to total DNA (PicoGreen, Invitrogen).
Rat or human β-cell proliferation assays were performed using dissociated primary rat or human islets. Islets were treated with the indicated compounds in the presence of EdU for 4 days before fixing and staining. EdU incorporation was measured by click reaction with AlexaFluor-647-azide (Invitrogen). For intact islet assays, primary human islets were treated for 7 or 8 days (as indicated in the legend). Rat dissociated islets were cultured in RPMI medium containing 10% FBS and human dissociated islets were cultured in PIM-S media (Prodo laboratories) with 10% human […].

The subject of assay [2] is Wnt-driven luciferase reporter in TM3 cells. Briefly: Wnt-driven luciferase reporter gene (Super Top Flash). In kind it is cell-based. From the text:
Supplementary Figure 8. Selective Dyrk1a inhibition is sufficient to induce β-cell proliferation.
Top Flash) in TM3 cells (mean ± SD; n=3). (b) GNF6324-treated primary rat islets were
immunostained for nuclear localization of β-catenin in EdU and insulin co-positive cells. Co-
vehicle control cells. Scale bar = 20 µm. (c-e) Selective Dyrk1a inhibitors stimulate EdU
Beta-catenin/Insulin/DAPI
% E d U (+ ) b e ta c e lls
% E d U (+ ) in s u lin (+ ) c e lls […]
% E d U ( + ) in s u lin (+ ) c e lls C o n tro l
(1 picture or pasted object on this page, not shown here)

The test system of assay [3] is NFATc1-GFP localization in Ins1 cells. The assay can be described thus: NFATc1-GFP nuclear localization. In kind it is cell-based. Conditions: low glucose. An excerpt:
Figure 6 AP compounds induce β-cell proliferation through activation of the calcineurin–NFAT pathway. (a) AP compounds stimulate NFATc1-GFP nuclear localization. […] Scale bar, 50 μm. […] Scale bar, 50 μm.

Another assay addresses T1, AURORA-A (Homo sapiens, UniProt O14965).
T1 construct: purchased Ambit KINOMEscan
T1 sequence (O14965 1-403): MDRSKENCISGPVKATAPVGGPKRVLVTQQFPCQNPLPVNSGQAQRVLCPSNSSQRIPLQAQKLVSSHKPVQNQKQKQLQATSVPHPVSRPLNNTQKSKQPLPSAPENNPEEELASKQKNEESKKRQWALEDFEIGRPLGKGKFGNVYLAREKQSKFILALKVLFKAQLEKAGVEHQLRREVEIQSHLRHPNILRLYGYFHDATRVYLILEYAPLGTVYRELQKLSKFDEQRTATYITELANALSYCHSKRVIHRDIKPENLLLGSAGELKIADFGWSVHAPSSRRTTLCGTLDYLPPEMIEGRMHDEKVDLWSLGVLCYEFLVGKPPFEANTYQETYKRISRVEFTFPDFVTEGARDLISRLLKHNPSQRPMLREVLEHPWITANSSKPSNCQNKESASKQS
Briefly: Kinase profiling. It is filed as biochemical. The following applies: read-out: Percent inhibition, AURORA-A; for inhibition at 1 µM: Conc 1000 nM. An excerpt: (§1) ; Fig. 5a; Supplementary Table 1). We focused on Dyrk1a because other kinases inhibited by aminopyrazine compounds were not highly expressed in β-cells and because Dyrk1a was known to inhibit the NFAT pathway that was previously implicated in β-cell proliferation. We used molecular modelling to dock the aminopyrazine compounds into the published structure of Dyrk1a (protein databank accession code 2vx3.pdb; Fig. 5b).

Another assay concerns the target T2, CHEK1 (Homo sapiens, UniProt O14757).
T2 construct: purchased Ambit KINOMEscan
Briefly: Kinase profiling. It is filed as biochemical. The following applies: Conc 1000 nM; read-out: Percent inhibition, CHEK1.
From the text: as §1

Another assay concerns the target T3, CK1a (Homo sapiens, UniProt P48729).
T3 construct: purchased Ambit KINOMEscan
Briefly: Kinase profiling. Conditions: Conc 1000 nM; read-out: Percent inhibition, CK1a. In kind it is biochemical.
From the text: as §1

In a further assay the target is T4, CSK (Homo sapiens, UniProt P41240).
T4 construct: purchased Ambit KINOMEscan
The assay can be described thus: Kinase profiling. Conditions: Conc 1000 nM; read-out: Percent inhibition, CSK. In kind it is biochemical.
From the text: as §1

The target in another assay is T5, ErbB4 (HER4) (Homo sapiens, UniProt Q15303).
T5 construct: purchased Ambit KINOMEscan
The assay can be described thus: Kinase profiling. In kind it is biochemical. Conditions: Conc 1000 nM; read-out: Percent inhibition, ErbB4 (HER4).
From the text: as §1

The target in a further assay is T6, FMS (CSF1R) (Homo sapiens, UniProt P07333).
T6 construct: purchased Ambit KINOMEscan
The assay can be described thus: Kinase profiling. It is filed as biochemical. The following applies: Conc 1000 nM; read-out: Percent inhibition, FMS (CSF1R).
From the text: as §1

Another assay deals with T7, IKKb (Homo sapiens, UniProt O14920).
T7 construct: purchased Ambit KINOMEscan
The assay can be described thus: Kinase profiling. In kind it is biochemical. Conditions: Conc 1000 nM; read-out: Percent inhibition, IKKb.
From the text: as §1

The next assay addresses T8, KDR (VEGFR2, FLK1) (Homo sapiens, UniProt P35968).
T8 construct: purchased Ambit KINOMEscan
The assay can be described thus: Kinase profiling. Conditions: read-out: Percent inhibition, KDR (VEGFR2, FLK1); for inhibition at 1 µM: Conc 1000 nM. In kind it is biochemical.
From the text: as §1

Another assay deals with T9, MAPK1 (ERK2) (Homo sapiens, UniProt P28482).
T9 construct: purchased Ambit (KINOMEscan)
The assay can be described thus: Kinase profiling. The following applies: Conc 1000 nM; read-out: Percent inhibition, MAPK1 (ERK2). In kind it is biochemical.
From the text: as §1

The target of another assay is T10, PDGFRb (Homo sapiens, UniProt P09619).
T10 construct: purchased Ambit (KINOMEscan)
The assay can be described thus: Kinase profiling. In kind it is biochemical. The following applies: read-out: Percent inhibition, PDGFRb; for inhibition at 1 µM: Conc 1000 nM.
From the text: as §1

Another assay concerns the target T11, PIM-2 (Homo sapiens, UniProt Q9P1W9).
T11 construct: purchased Ambit (KINOMEscan)
Briefly: Kinase profiling. It is filed as biochemical. Conditions: Conc 1000 nM; read-out: Percent inhibition, PIM-2.
From the text: as §1

In another assay the target is T12, ROS (Homo sapiens, UniProt P08922).
T12 construct: purchased Ambit (KINOMEscan)
Briefly: Kinase profiling. In kind it is biochemical. The following applies: read-out: Percent inhibition, ROS; for inhibition at 1 µM: Conc 1000 nM.
From the text: as §1

Another assay deals with T13, SYK (Homo sapiens, UniProt P43405).
T13 construct: purchased Ambit (KINOMEscan)
Briefly: Kinase profiling. In kind it is biochemical. Conditions: read-out: Percent inhibition, SYK; for inhibition at 1 µM: Conc 1000 nM.
From the text: as §1

A further assay has as its target T14, p70S6K1 (Homo sapiens, UniProt P23443).
T14 construct: purchased Ambit (KINOMEscan)
The assay can be described thus: Kinase profiling. In kind it is biochemical. The following applies: Conc 1000 nM; read-out: Percent inhibition, p70S6K1.
From the text: as §1

T8 sequence (P35968 20-1356): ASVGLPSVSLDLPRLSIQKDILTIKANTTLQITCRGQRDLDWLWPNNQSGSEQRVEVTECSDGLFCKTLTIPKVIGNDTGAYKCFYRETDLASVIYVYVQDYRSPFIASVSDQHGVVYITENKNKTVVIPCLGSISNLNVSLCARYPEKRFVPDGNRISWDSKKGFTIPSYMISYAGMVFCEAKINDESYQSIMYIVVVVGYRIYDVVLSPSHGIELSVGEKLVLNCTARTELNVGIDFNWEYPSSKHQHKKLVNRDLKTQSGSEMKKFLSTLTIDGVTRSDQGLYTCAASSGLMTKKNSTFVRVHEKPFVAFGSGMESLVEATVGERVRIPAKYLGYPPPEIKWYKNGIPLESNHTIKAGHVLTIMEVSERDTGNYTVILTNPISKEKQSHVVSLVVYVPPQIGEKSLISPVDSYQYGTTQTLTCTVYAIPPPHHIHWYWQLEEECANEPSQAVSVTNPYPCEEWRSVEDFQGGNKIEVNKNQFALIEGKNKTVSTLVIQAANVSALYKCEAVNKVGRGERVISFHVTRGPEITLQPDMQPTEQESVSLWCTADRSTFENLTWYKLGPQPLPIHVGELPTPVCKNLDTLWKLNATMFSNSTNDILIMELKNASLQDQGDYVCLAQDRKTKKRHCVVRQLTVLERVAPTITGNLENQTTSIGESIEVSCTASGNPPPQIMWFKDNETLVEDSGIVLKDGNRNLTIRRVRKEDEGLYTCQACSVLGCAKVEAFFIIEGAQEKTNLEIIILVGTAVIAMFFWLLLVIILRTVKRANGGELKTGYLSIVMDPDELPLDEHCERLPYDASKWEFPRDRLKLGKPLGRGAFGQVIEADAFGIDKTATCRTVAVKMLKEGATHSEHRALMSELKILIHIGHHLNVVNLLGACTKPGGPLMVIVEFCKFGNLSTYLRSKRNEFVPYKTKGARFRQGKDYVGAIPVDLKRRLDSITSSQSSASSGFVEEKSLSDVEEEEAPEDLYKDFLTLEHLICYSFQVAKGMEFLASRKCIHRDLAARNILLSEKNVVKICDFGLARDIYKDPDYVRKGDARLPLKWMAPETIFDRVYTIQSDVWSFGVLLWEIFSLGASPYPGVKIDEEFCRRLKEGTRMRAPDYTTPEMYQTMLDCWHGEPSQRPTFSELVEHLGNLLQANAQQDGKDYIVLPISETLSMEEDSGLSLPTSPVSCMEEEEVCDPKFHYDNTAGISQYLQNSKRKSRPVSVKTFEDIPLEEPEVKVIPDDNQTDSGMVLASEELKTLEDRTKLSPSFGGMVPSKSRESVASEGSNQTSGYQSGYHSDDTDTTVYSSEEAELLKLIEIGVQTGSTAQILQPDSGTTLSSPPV
T10 sequence (P09619 33-1106): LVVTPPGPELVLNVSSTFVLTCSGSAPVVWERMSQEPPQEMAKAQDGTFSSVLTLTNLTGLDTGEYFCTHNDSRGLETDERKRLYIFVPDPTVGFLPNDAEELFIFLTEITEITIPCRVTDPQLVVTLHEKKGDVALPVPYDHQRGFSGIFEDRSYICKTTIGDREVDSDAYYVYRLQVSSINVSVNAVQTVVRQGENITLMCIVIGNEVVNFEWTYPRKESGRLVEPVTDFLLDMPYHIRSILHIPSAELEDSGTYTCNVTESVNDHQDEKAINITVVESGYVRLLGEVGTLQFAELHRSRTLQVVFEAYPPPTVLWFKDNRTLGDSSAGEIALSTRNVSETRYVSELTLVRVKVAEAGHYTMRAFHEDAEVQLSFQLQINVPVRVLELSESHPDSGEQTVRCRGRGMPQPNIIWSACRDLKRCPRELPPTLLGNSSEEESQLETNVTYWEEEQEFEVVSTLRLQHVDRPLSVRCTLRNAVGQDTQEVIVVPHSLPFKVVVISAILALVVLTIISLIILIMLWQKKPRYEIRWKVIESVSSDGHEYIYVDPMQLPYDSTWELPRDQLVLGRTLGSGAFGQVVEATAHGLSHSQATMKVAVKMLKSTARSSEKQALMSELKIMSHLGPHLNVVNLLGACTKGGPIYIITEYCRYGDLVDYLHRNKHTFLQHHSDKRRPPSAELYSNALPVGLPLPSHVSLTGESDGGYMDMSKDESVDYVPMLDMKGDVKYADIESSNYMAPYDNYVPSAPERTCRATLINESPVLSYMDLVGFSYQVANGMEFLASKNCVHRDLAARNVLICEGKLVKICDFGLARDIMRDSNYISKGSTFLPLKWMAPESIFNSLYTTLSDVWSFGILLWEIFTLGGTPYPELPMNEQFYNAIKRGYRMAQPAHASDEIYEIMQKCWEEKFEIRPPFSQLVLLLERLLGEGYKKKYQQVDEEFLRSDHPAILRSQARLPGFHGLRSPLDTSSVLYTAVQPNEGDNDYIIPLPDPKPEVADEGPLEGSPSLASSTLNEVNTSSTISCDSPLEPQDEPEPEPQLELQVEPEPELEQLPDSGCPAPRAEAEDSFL
T12 sequence (P08922 28-2347): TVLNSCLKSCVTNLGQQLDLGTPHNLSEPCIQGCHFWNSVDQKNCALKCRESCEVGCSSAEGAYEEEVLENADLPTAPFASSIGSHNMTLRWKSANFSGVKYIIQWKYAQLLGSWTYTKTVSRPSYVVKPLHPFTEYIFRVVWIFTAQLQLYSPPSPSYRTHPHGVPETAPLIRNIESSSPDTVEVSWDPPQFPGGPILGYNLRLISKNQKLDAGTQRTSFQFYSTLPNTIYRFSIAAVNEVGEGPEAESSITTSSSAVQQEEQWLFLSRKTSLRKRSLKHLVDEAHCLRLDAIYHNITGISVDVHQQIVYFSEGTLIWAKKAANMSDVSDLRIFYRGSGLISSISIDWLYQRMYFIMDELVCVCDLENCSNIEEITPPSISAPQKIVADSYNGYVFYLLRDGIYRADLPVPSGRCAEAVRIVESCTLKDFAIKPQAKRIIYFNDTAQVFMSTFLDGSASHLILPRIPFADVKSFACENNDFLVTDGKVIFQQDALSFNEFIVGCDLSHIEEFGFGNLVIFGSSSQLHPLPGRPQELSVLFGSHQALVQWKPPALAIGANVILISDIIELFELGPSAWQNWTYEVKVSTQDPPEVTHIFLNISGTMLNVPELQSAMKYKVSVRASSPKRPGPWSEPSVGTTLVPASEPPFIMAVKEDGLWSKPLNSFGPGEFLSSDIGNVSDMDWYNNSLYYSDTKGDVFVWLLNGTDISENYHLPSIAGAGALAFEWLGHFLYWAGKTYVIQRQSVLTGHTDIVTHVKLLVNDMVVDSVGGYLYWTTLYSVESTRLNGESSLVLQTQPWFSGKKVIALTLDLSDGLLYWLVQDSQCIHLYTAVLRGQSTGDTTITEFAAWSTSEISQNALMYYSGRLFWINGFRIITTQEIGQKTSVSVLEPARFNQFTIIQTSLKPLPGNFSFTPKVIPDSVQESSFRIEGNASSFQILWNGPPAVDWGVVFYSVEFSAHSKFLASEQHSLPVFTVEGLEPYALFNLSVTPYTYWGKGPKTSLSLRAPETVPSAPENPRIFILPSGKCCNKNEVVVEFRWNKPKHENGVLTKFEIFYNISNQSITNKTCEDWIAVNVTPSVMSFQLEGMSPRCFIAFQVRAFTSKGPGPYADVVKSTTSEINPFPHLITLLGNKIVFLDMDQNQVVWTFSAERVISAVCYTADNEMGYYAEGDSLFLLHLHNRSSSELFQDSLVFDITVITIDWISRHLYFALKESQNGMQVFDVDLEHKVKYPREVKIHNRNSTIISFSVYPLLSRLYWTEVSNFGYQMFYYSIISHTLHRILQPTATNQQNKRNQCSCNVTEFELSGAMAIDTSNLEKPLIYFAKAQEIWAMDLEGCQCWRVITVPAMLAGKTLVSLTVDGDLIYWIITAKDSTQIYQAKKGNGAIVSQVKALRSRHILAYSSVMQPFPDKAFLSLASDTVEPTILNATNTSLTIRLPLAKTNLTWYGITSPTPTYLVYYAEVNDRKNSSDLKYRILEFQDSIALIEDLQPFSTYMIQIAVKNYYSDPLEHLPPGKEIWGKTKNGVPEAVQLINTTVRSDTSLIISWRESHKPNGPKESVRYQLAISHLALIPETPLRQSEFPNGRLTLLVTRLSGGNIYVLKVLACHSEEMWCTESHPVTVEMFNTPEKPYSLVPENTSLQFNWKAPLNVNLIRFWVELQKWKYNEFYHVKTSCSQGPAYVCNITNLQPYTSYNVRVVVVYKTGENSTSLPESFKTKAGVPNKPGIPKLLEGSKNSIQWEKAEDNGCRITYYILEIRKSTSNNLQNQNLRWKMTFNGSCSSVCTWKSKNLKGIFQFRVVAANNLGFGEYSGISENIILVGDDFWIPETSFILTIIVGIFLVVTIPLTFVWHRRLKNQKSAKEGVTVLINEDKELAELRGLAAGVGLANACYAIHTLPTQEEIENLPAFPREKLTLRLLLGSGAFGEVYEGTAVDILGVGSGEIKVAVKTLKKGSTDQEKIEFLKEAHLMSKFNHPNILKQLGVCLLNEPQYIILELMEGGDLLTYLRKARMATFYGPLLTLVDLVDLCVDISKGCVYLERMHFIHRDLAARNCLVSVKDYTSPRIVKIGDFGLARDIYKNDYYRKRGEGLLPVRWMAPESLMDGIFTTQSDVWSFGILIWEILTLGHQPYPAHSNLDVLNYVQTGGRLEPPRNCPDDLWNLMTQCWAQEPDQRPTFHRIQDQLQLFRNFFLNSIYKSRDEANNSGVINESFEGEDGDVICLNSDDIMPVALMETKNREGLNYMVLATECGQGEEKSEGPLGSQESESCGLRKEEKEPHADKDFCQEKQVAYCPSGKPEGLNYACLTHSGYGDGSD
T11 sequence (Q9P1W9 whole entry): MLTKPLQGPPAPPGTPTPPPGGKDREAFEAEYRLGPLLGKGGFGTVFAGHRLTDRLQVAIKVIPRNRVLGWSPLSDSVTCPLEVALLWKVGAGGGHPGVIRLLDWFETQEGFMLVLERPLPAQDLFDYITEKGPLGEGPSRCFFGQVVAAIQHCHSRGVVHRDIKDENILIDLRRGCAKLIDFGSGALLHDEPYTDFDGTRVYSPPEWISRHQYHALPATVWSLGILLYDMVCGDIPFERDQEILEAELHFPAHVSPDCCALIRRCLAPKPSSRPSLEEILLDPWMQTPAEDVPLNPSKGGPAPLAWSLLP

For `Nc1ncc(-c2ccccc2)nc1C(=O)Nc1cnccc1N1CCC(C(=O)O)CC1` [GNF7156], a half-maximal effect in assay [1] (EC50) was put at 2200 nM. The “insulin content of treated human islets” value in the assay with human islets (6.7 μM GNF7156) is “slightly reduced insulin content”. Moreover, the “DNA and ATP content and islet equivalent units (IEQ) compared with vehicle” value in the assay on human islets was “increases in DNA and ATP content and an increase in islet equivalent units”. The “insulin secretory capacity (GSIS)” value in the assay with human islets is given as “maintained insulin secretory capacity”. For the same compound, the “induction of Wnt-driven luciferase reporter gene” value in assay [2] is “induce a Wnt-driven luciferase reporter gene”. For the same compound, the NFATc1-GFP nuclear localization result in [3] is recorded as “caused marked nuclear localization of NFATc1-GFP”. The inhibition at 1 µM stood at 95% on AURORA-A; 12% on CHEK1; 42% at CK1a; 29% on CSK; 36% on ErbB4 (HER4); 78% on FMS (CSF1R). For the same compound, the inhibition at 1 µM was found to be 8% on IKKb; 102% on KDR (VEGFR2, FLK1); 6% at MAPK1 (ERK2); 94% on PDGFRb; 60% on PIM-2; 96% at ROS. For the same compound, the inhibition at 1 µM on SYK is 93%; on p70S6K1 it was 50%.

For `CC(C)Oc1ccc(F)c(-c2cnc(N)c(C(=O)Nc3cnccc3N3CCC[C@@H](C(=O)O)C3)n2)c1` [GNF4877], in [1], the EC50 is 660 nM. Further, the “DNA and ATP content and islet equivalent units (IEQ) compared with vehicle” value in the assay with human islets was “increases in DNA and ATP content and an increase in islet equivalent units”. In addition, the “insulin secretory capacity (GSIS)” value with human islets is given as “maintained insulin secretory capacity”. The “induction of Wnt-driven luciferase reporter gene” value in assay [2] is “induce a Wnt-driven luciferase reporter gene”. In addition, the NFATc1-GFP nuclear localization result in assay [3] is on record as “caused marked nuclear localization of NFATc1-GFP”. The inhibition at 0.2 µM at AURORA-A (Conc 200 nM) is 0%; on KDR (VEGFR2, FLK1) (Conc 200 nM), 6%; at PDGFRb (Conc 200 nM) it was 0%; on ROS (Conc 200 nM) it was 71%; at SYK (Conc 200 nM), 89%. The inhibition at 1 µM at AURORA-A was found to be 84%; on CHEK1, 43%; at CK1a it was 89%; at CSK, 54%; at ErbB4 (HER4), 54%; at FMS (CSF1R), 72%. For the same compound, the inhibition at 1 µM was -1% on IKKb; 101% at KDR (VEGFR2, FLK1); 7% at MAPK1 (ERK2); 94% on PDGFRb; 31% on PIM-2; 97% on ROS. Further, the values for the inhibition at 1 µM at SYK and at p70S6K1 were 95% and 75%, respectively.

Usually EC50 stands for the concentration giving half of the maximal effect. Usually inhibition stands for the relative decrease from the control value, in per cent.

The record behind these values is article PMC4639830, “Inhibition of DYRK1A and GSK3B induces human β-cell proliferation” (Nature Communications, 2015).
